Earlier results on two compounds are cited in patent publication US11376295B2, “Method for preparing Rhus verniciflua stokes extract containing increased fisetin content, and metastasis-inhibiting anticancer agent composition containing same” (MEDIENCE CO.,LTD, priority 2018, dated 2022).

The conditions of this data set: among flavonoids of the Rhus verniciflua Stokes extract; result of research, background.

As for `O=c1c(O)c(-c2ccc(O)c(O)c2)oc2cc(O)ccc12` [fisetin], the anticancer activity result is given as “highest anticancer activity”. With `O=C1c2ccc(O)cc2O[C@H](c2ccc(O)c(O)c2)[C@H]1O` [fustin], the anticancer activity result is “low anticancer activity”.
